Assay results published in patent publication US20070244108A1 (priority 2004, published 2007).

What was measured:
Human 11β HSD1 = molecular target: T1, Human 11β HSD1 (Homo sapiens, UniProt P28845); assay: 11β HSD1 cortisol radioimmunoassay (RIA), human hepatic microsomes; type: biochemical; conditions: 10 μM compound; typical sd ± 5%, N=2
T1 construct: human hepatic microsomes were obtained from XenoTech, product H0610/Lot 0210078; tissue XenoTech H0610/Lot 0210078; host or cells: human liver (hepatic microsomes)
Procedure: Standard Operating Procedure for the 11β-Hydroxysteroid Dehydrogenase Type 1 cortisol Radioimmunoassay (11β HSD1 Cortisol RIA).
Prepare 10 mM stock solutions in 100% DMSO at 100 times the required assay concentration. Dilute into assay buffer 1 in 25. Also dilute neat DMSO 1 in 25 into assay buffer for controls.
Dilute this 1 in 50 into assay buffer.
Mix these 3 solutions 1:1:1 to make a solution of sufficient volume for 25 μl additions to each sample.
Dilute stock 20 mg/ml solution 1 in 100 with assay buffer.
Dilute stock antibody solution to 17 μg/ml in antibody binding buffer.
To a u-bottom polypropylene 96 well plate add:
25 μl compound dilution or diluted DMSO to controls, NSB's and blanks
10 μl […] in DMSO (enzyme stop solution) to blanks
25 μl substrate mixture to all samples
50 μl diluted microsomes to all samples
Incubate plate for 30 min at 37° C. shaking
Add 10 μl enzyme stop solution to all wells except the blanks
Add 100 μl antibody solution to all wells except the NSB's, add antibody binding buffer to these wells
Incubate at 37° C. for 1 h
Add 50 μl/well charcoal solution and mix with an 8-channel pipette (4-5 aspirations)
Centrifuge at 4° C., 2000×g for 15 min
Transfer 100 μl supernatant into an Optiplate, also add 25 μl substrate mixture to 2 empty wells to indicate counting efficiency
Add 200 μl Microscint-40 to all wells and count on a Topcount
The 11β HSD1 enzyme assay was carried out following the standard operating procedure described above in u-bottom polypropylene 96 well plates or 1.5 ml Eppendorf tubes as indicated for each experiment. Subsequent to stopping the enzyme reaction, 100 μl antibody prepared in buffer 3 unless otherwise indicated was added to test samples and 100 μl buffer 3 was added to the NSB samples. […] Aliquots of the supernatant (100 μl) were transferred to an Optiplate and counted on the Topcount in 150-200 μl Microscint 40. In some experiments, aliquots of supernatant were transferred to scintillation vials and counted on the Tricarb LSC in 5 ml Ultima Gold scintillant.

T1 sequence (P28845 whole entry): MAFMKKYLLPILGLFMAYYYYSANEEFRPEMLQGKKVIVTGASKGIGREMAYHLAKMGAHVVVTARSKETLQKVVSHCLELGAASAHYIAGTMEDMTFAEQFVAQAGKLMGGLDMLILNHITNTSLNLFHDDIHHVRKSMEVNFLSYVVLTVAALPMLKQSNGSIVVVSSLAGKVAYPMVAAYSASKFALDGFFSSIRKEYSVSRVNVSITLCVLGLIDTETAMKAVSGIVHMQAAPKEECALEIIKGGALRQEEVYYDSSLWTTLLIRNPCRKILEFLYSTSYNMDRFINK

Row | Compound | melting point [°C] | inhibition at 10 µM (Human 11β HSD1) [%]
1 | CCCc1ccc(S(=O)(=O)NN2CCN(C)CC2)cc1 [STX551, N-(4-Methylpiperazin-1-yl)-4-propylbenzenesulfonamide] | 153 to 154 | > 35
2 | CCCc1ccc(S(=O)(=O)NCCc2ncc[nH]2)cc1 [STX578, N-[2-(4H-Imidazol-2-yl)-ethyl]-4-propylbenzenesulfonamide] | – | > 35
3 | CCCc1ccc(S(=O)(=O)NN2CCOCC2)cc1 [STX586, N-Morpholin-4-yl-4-propyl-benzenesulfonamide] | 150 to 152 | > 35
